Laboratory results reported in ChEMBL document CHEMBL5321231, “Synthesis, antiviral activity, and computational study of β-d-xylofuranosyl nucleoside phosphonates” (Eur J Med Chem, 2023).
The source made the active and inactive calls. No cut-off for these calls is given here.

Experiments:
[1] = Cytotoxicity against human RD cells assessed as reduction in cell viability by neutral red dye based spectrophotometric analysis; assay type: toxicity
[2] = test system: Tacaribe virus; assay: Antiviral activity against TCRV TRVL 11573 strain infected in African green monkey Vero 76 cells assessed as reduction in virus induced cytopathic effect incubated for 7 days by neutral red dye based spectrophotometric analysis; assay type: functional, organism-based; conditions: Mammarenavirus tacaribeense, time 7.0 day
[3] = test system: Respiratory syncytial virus; assay: Antiviral activity against RSV A2 strain infected in vervet monkey MA-104 cells assessed as reduction in virus induced cytopathic effect incubated for 6 days by neutral red dye based spectrophotometric analysis; assay type: functional, organism-based; conditions: time 6.0 day
[4] = Cytotoxicity against human RD cells assessed as reduction in cell viability by visual analysis; assay type: toxicity, cell-based
[5] = test system: Middle East respiratory syndrome-related coronavirus; assay: Antiviral activity against MERS-CoV EMC strain infected in […] cells assessed as reduction in virus induced cytopathic effect incubated for 5 days by neutral red dye based spectrophotometric analysis; assay type: functional, organism-based; conditions: time 5.0 day
[6] = test system: dengue virus type 2; assay: Antiviral activity against DENV-2 New Guinea C infected in human Huh-7 cells assessed as reduction in virus induced cytopathic effect incubated for 6 days by neutral red dye based spectrophotometric analysis; assay type: functional, organism-based; conditions: Huh-7, 144 h
[7] = Cytotoxicity against African green monkey Vero 76 cells assessed as reduction in cell viability by neutral red dye based spectrophotometric analysis; assay type: toxicity; conditions: chlorocebus sabaeus
[8] = test system: Hepatitis B virus; assay: Antiviral activity against Hepatitis B virus; assay type: functional, organism-based
[9] = Selectivity index, ratio of CC50 for cytotoxicity against human RD cells to EC50 for antiviral activity against EV-68 US/KY/14-18953 infected in human RD cells by visual analysis; assay type: toxicity, cell-based; conditions: read-out: Ratio CC50/EC50
[10] = Cytotoxicity against human Huh-7 cells assessed as reduction in cell viability by neutral red dye based spectrophotometric analysis; assay type: toxicity
[11] = test system: enterovirus D68; assay: Antiviral activity against EV-68 US/KY/14-18953 infected in human RD cells assessed as reduction in virus induced cytopathic effect incubated for 3 days by visual analysis; assay type: functional, organism-based; conditions: Enterovirus D, US/KY/14-18953, RD, 72 h
[12] = Selectivity index, ratio of CC50 for cytotoxicity against human RD cells to EC50 for antiviral activity against EV-68 US/KY/14-18953 infected in human RD cells by neutral red dye based spectrophotometric analysis; assay type: toxicity, cell-based; conditions: read-out: Ratio CC50/EC50
[13] = Cytotoxicity against African green monkey Vero 76 cells assessed as reduction in cell viability by visual analysis; assay type: toxicity, cell-based; conditions: chlorocebus sabaeus
[14] = test system: Influenza A virus; assay: Antiviral activity against influenza A virus H1N1 California/07/2009 infected in dog MDCK cells assessed as reduction in virus induced cytopathic effect incubated for 6 days by neutral red dye based spectrophotometric analysis; assay type: functional, organism-based; conditions: time 6.0 day
[15] = test system: dengue virus type 2; assay: Antiviral activity against DENV-2 New Guinea C infected in human Huh-7 cells assessed as reduction in virus induced cytopathic effect incubated for 6 days by visual analysis; assay type: functional, organism-based; conditions: Huh-7, 144 h
[16] = test system: Measles morbillivirus; assay: Antiviral activity against MeV CC strain infected in African green monkey Vero 76 cells assessed as reduction in virus induced cytopathic effect incubated for 6 days by neutral red dye based spectrophotometric analysis; assay type: functional, organism-based; conditions: Vero 76, 144 h
[17] = test system: Herpesviridae sp.; assay: Antiviral activity against HSV; assay type: functional, organism-based
[18] = test system: Measles morbillivirus; assay: Antiviral activity against MeV CC strain infected in African green monkey Vero 76 cells assessed as reduction in virus induced cytopathic effect incubated for 6 days by visual analysis; assay type: functional, organism-based; conditions: Vero 76, 144 h
[19] = test system: enterovirus D68; assay: Antiviral activity against EV-68 US/KY/14-18953 infected in human RD cells assessed as reduction in virus induced cytopathic effect incubated for 3 days by neutral red dye based spectrophotometric analysis; assay type: functional, organism-based; conditions: Enterovirus D, US/KY/14-18953, RD, 72 h
[20] = Cytotoxicity against human Huh-7 cells assessed as reduction in cell viability by visual analysis; assay type: toxicity, cell-based
[21] = Selectivity index, ratio of CC50 for cytotoxicity against African green monkey Vero 76 cells to EC50 for antiviral activity against MeV CC strain infected in African green monkey Vero 76 cells by visual analysis; assay type: toxicity, cell-based; conditions: read-out: Ratio CC50/EC50
[22] = Selectivity index, ratio of CC50 for cytotoxicity against African green monkey Vero 76 cells to EC50 for antiviral activity against MeV CC strain infected in African green monkey Vero 76 cells by neutral red dye based spectrophotometric analysis; assay type: toxicity, cell-based; conditions: read-out: Ratio CC50/EC50

Compound | CC50 [1] | Activity [2] | Activity [3] | CC50 [4] | Activity [5] | EC50 [6] | CC50 [7] | Activity [8] | CC50 [10] | EC50 [11] | CC50 [13] | Activity [14] | EC50 [15] | EC50 [16] | Activity [17] | EC50 [18] | EC50 [19] | CC50 [20] | selectivity ratio [21] | selectivity ratio [22] | further results
O=c1[nH]cnc2c1ncn2[C@@H]1O[C@H](CO)[C@H](OCP(=O)(O)O)[C@H]1O | > 100 µM | inactive | inactive | > 100 µM | inactive | > 100 µM | > 100 µM | inactive | > 100 µM | 46 µM | > 100 µM | inactive | > 100 µM | > 100 µM | inactive | > 100 µM | 89 µM | > 100 µM |  |  | selectivity ratio [9]: > 2.2; selectivity ratio [12]: > 1.1
Nc1ccn([C@@H]2O[C@H](CO)[C@H](OCP(=O)(O)O)[C@H]2O)c(=O)n1 | > 100 µM | inactive | inactive | > 100 µM | inactive | > 100 µM | > 100 µM | inactive | > 100 µM | > 100 µM | > 100 µM | inactive | > 100 µM | 49 µM | inactive | 72 µM | > 100 µM | > 100 µM | > 1.4 | > 2 | 
Nc1nc2c(ncn2[C@@H]2O[C@H](CO)[C@H](OCP(=O)(O)O)[C@H]2O)c(=O)[nH]1 | > 100 µM | inactive | inactive | 73 µM | inactive | > 100 µM | > 100 µM | inactive | > 100 µM | 47 µM | > 100 µM | inactive | > 100 µM | > 100 µM | inactive | > 100 µM | 40 µM | > 100 µM |  |  | selectivity ratio [9]: 1.6; selectivity ratio [12]: > 2.5
O=c1ccn([C@@H]2O[C@H](CO)[C@H](OCP(=O)(O)O)[C@H]2O)c(=O)[nH]1 | > 100 µM | inactive | inactive | > 100 µM | inactive | > 84 µM | > 100 µM | inactive | > 100 µM | > 100 µM | > 100 µM | inactive | > 100 µM | 82 µM | inactive | 72 µM | > 100 µM | > 100 µM | > 1.4 | > 1.2 | 
CC(C)S(=O)(=O)n1c(N)nc2ccc(/C(=N/O)c3ccccc3)cc21 [ENVIROXIME] | 5.5 µM |  |  | 10 µM |  |  |  |  |  |  |  |  |  |  |  |  |  |  |  |  | 
Nc1ncnc2c1ncn2[C@@H]1O[C@H](CO)[C@H](OCP(=O)(O)O)[C@H]1O | > 100 µM | inactive | inactive | > 100 µM | inactive | > 100 µM | > 100 µM | inactive | > 100 µM | 16 µM | > 100 µM | inactive | > 100 µM | 14 µM | inactive | 12 µM | 20 µM | > 100 µM | > 8.3 | > 7.1 | selectivity ratio [9]: > 6.3; selectivity ratio [12]: > 5
Nc1ccn([C@@H]2O[C@H](CO)[C@@H](O)[C@H]2F)c(=O)n1 |  |  |  |  |  |  | > 100 µM |  |  |  | > 100 µM |  |  | 0.95 µM |  | 0.7 µM |  |  | > 140 | > 110 | 
NC(=O)c1ncn([C@@H]2O[C@H](CO)[C@@H](O)[C@H]2O)n1 |  | inactive | inactive |  |  |  |  |  |  |  |  | inactive |  |  |  |  |  |  |  |  | 
